# According to patent EP4759807A1, “PROTEOLYSIS TARGETING CHIMERA COMPOUND FOR DEGRADING IRAK4 AND USE THEREOF” (Shenzhen Zhongge Biological Technology Co., Ltd., priority 2023, dated 2025):
# Where two headings read alike, the source gives them in different places.
# Target: T1, IRAK4 (Homo sapiens, UniProt Q9NWZ3)
# T1 sequence (Q9NWZ3 1-460): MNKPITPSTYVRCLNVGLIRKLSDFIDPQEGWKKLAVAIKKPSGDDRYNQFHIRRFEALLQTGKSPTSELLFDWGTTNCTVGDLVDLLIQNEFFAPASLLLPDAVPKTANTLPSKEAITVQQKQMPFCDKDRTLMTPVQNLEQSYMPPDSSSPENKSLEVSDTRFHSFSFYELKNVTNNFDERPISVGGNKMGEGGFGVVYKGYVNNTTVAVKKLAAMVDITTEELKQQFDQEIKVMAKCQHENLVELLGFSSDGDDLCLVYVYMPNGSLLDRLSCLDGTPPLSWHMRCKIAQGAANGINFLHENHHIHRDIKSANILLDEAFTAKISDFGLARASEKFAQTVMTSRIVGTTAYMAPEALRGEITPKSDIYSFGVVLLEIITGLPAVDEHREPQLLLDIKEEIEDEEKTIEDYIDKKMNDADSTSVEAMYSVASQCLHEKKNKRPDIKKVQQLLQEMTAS
# Assay: Hibit fluorescence detection of proteolysis (IRAK4-HiBiT in HEK293T cells)
# Type: cell-based
# Parameters: host or cells: HEK293T (ATCC)
# Settings: for Dmax: HEK-293T
# Summary of the method: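 Degradation read-out: luminescence from lytic HiBiT detection (15 min, room temperature) after 24 h compound exposure (37 °C, 5% CO2) of HEK293T cells transiently expressing IRAK4 fused to a HiBiT tag. Data fitted to a bell-shaped four-parameter model giving two EC50 values.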
# [1] = IRAK4-HiBiT, HEK293T cells, 24 h
Structure (SMILES),Dmax,DC50 [1],"Dmax (IRAK4-HiBiT, HEK293T cells, 24 h, read-out: Dmax)","DC50 (IRAK4-HiBiT, HEK293T cells, 24 h, read-out: DC50)"
"C[C@@H]1CN(C[C@H]2CC[C@H](n3cc(-n4cc(-c5ccc6cc(C(N)=O)cnn56)nn4)c(C(F)F)n3)CC2)CCN1c1cccc2c1n(C)c(=O)n2C1CCC(=O)NC1=O (stereo partly drawn) [Example 51, 7-(1-(3-(difluoromethyl)-1-((1R,4r)-4-(((3R)-4-(1-(2,6-dioxopiperidin-3-yl)-3-methyl-2-oxo-2,3-dihydro-1H-benzo[d]imidazol-4-yl)-3-methylpiperazin-1-yl)methyl)cyclohexyl)-1H-pyrazol-4-yl)-1H-1,2,3-triazol-4-yl)pyrrolo[1,2-b]pyridazine-3-carboxamide]",> 80%,< 0.5 nM,–,–
C[C@H]1CN(c2cccc3c2n(C)c(=O)n3C2CCC(=O)NC2=O)CCN1C[C@H]1CC[C@H](n2cc(-n3cc(-c4cnn5ccc(N6CCOCC6)nc45)nn3)c(C(F)F)n2)CC1 (stereo partly drawn) [Example 52],70 to 80%,0.5 to 1 nM,–,–
"Cn1c(=O)n(C2CCC(=O)NC2=O)c2cccc(N3CCC4(CCCN(C[C@H]5CC[C@H](n6cc(-n7cc(-c8cnn9ccc(N%10CCOCC%10)nc89)nn7)c(C(F)F)n6)CC5)C4)CC3)c21 (stereo partly drawn) [Example 53, 3-(4-(2-(((1r,4r)-4-(3-(difluoromethyl)-4-(4-(5-morpholinopyrazolo[1,5-a]pyrimidin-3-yl)-1H-1,2,3-triazol-1-yl)-1H-pyrazol-1-yl)cyclohexyl)methyl)-2,9-diazaspiro[5.5]undecan-9-yl)-3-methyl-2-oxo-2,3-dihydro-1H-benzo[d]imidazol-1-yl)piperidine-2,6-dione]",70 to 80%,0.5 to 1 nM,–,–
Cn1c(=O)n(C2CCC(=O)NC2=O)c2cccc(N3CCN(C[C@H]4CC[C@H](n5cc(-n6cc(-c7ccc8cc(C(N)=O)cnn78)nn6)c(C(F)F)n5)CC4)CC3)c21 (stereo partly drawn) [Example 57],70 to 80%,< 0.5 nM,–,–
"Cn1c(=O)n(C2CCC(=O)NC2=O)c2cccc(N3CC(N4CCN(C[C@H]5CC[C@H](n6cc(-n7cc(-c8ccc9cc(C(N)=O)cnn89)nn7)c(C(F)F)n6)CC5)CC4)C3)c21 (stereo partly drawn) [Example 63, 7-(1-(3-(difluoromethyl)-1-((1r,4r)-4-((4-(1-(1-(2,6-dioxopiperidin-3-yl)-3-methyl-2-oxo-2,3-dihydro-1H-benzo[d]imidazol-4-yl)azetidin-3-yl)piperazin-1-yl)methyl)cyclohexyl)-1H-pyrazol-4-yl)-1H-1,2,3-triazol-4-yl)pyrrolo[1,2-b]pyridazine-3-carboxamide]",60 to 70%,< 0.5 nM,–,–
Cn1c(=O)n(C2CCC(=O)NC2=O)c2cccc(C#CCOC3CCN(C[C@H]4CC[C@H](n5cc(-n6cc(-c7ccc8cc(C(N)=O)cnn78)nn6)c(C(F)F)n5)CC4)CC3)c21 (stereo partly drawn) [Example 65],60 to 70%,< 0.5 nM,–,–
"Cn1c(=O)n(C2CCC(=O)NC2=O)c2cccc(NC3CCN(C[C@H]4CC[C@H](n5cc(-n6cc(-c7ccc8cc(C(N)=O)cnn78)nn6)c(C(F)F)n5)CC4)CC3)c21 (stereo partly drawn) [Example 66, 7-(1-(3-(difluoromethyl)-1-((1r,4r)-4-((4-((1-(2,6-dioxopiperidin-3-yl)-3-methyl-2-oxo-2,3-dihydro-1H-benzo[d]imidazol-4-yl)amino)piperidin-1-yl)methyl)cyclohexyl)-1H-pyrazol-4-yl)-1H-1,2,3-triazol-4-yl)pyrrolo[1,2-b]pyridazine-3-carboxamide]",70 to 80%,< 0.5 nM,–,–
Cn1c(=O)n(C2CCC(=O)NC2=O)c2cccc(N3CCN(C4CN(C[C@H]5CC[C@H](n6cc(-n7cc(-c8ccc9cc(C(N)=O)cnn89)nn7)c(C(F)F)n6)CC5)C4)CC3)c21 (stereo partly drawn) [Example 67],> 80%,< 0.5 nM,–,–
Cn1c(=O)n(C2CCC(=O)NC2=O)c2cccc(CN3CCN(C[C@H]4CC[C@H](n5cc(-n6cc(-c7ccc8cc(C(N)=O)cnn78)nn6)c(C(F)F)n5)CC4)CC3)c21 (stereo partly drawn) [Example 68],> 80%,< 0.5 nM,–,–
"Cn1c(=O)n(C2CCC(=O)NC2=O)c2cccc(NC(=O)C3CCN(C[C@H]4CC[C@H](n5cc(-n6cc(-c7ccc8cc(C(N)=O)cnn78)nn6)c(C(F)F)n5)CC4)CC3)c21 (stereo partly drawn) [Example 69, 7-(1-(3-(difluoromethyl)-1-((1r,4r)-4-((4-((1-(2,6-dioxopiperidin-3-yl)-3-methyl-2-oxo-2,3-dihydro-1H-benzo[d]imidazol-4-yl)carbamoyl)piperidin-1-yl)methyl)cyclohexyl)-1H-pyrazol-4-yl)-1H-1,2,3-triazol-4-yl)pyrrolo[1,2-b]pyridazine-3-carboxamide]",> 80%,> 5 nM,–,–
"NC(=O)c1cnn2c(-c3cn(-c4cn([C@H]5CC[C@H](CN6CCN(c7ccc8c(c7)C(=O)N(C7CCC(=O)NC7=O)C8=O)CC6)CC5)nc4C(F)F)nn3)ccc2c1 (stereo partly drawn) [Example 70, 7-(1-(3-(difluoromethyl)-1-((1r,4r)-4-(4-(2-(2,6-dioxopiperidin-3-yl)-1,3-dioxoisoindolin-5-yl)piperazin-1-yl)methyl)cyclohexyl-1H-pyrazol-4-yl)-1H-1,2,3-triazol-4-yl)pyrrolo[1,2-b]pyridazine-3-carboxamide]",70 to 80%,1 to 5 nM,–,–
Cn1c(=O)n(C2CCC(=O)NC2=O)c2cccc(N3CCN(C4CCN(C[C@H]5CC[C@H](n6cc(-n7cc(-c8ccc9cc(C(N)=O)cnn89)nn7)c(C(F)F)n6)CC5)CC4)CC3)c21 (stereo partly drawn) [Example 71],> 80%,< 0.5 nM,–,–
"NC(=O)c1cnn2c(-c3cn(-c4cn([C@H]5CC[C@H](CN6CCN(c7ccc8c(c7)CN(C7CCC(=O)NC7=O)C8=O)CC6)CC5)nc4C(F)F)nn3)ccc2c1 (stereo partly drawn) [Example 72, 7-(1-(3-(difluoromethyl)-1-((1r,4r)-4-((4-(2-(2,6-dioxopiperidin-3-yl)-1-oxoisoindolin-5-yl)piperazin-1-yl)methyl)cyclohexyl)-1H-pyrazol-4-yl)-1H-1,2,3-triazol-4yl)pyrrolo[1,2-b]pyridazine-3-carboxamide]",60 to 70%,< 0.5 nM,–,–
"Cn1c(=O)n(C2CCC(=O)NC2=O)c2cccc(N3CC(CN4CCC(n5cc(-n6cc(-c7ccc8cc(C(N)=O)cnn78)nn6)c(C(F)F)n5)CC4)C3)c21 (stereo not drawn) [Example 73, 7-(1-(3-(difluoromethyl)-1-(1-((1-(1-(2,6-dioxopiperidin-3-yl)-3-methyl-2-oxo-2,3-dihydro-1H-benzo[d]imidazol-4-yl)azetidin-3-yl)methyl)piperidin-4-yl)-1H-pyrazol-4-yl)-1H-1,2,3-triazol-4-yl) pyrrolo[1,2-b]pyridazine-3-carboxamide]",< 60%,< 0.5 nM,–,–
"Cn1c(=O)n(C2CCC(=O)NC2=O)c2cccc(N3CCC(CN4CCC(n5cc(-n6cc(-c7ccc8cc(C(N)=O)cnn78)nn6)c(C(F)F)n5)CC4)CC3)c21 (stereo not drawn) [Example 74, 7-(1-(3-(difluoromethyl)-1-(1-((1-(1-(2,6-dioxopiperidin-3-yl)-3-methyl-2-oxo-2,3-dihydro-1H-benzo[d]imidazol-4-yl)piperidin-4-yl)methyl)piperidin-4-yl)-1H-pyrazol-4-yl)-1H-1,2,3-triazol-4-yl)pyrrolo[1,2-b]pyridazine-3-carboxamide]",–,–,70 to 80%,< 0.5 nM
NC(=O)c1cnn2c(-c3cn(-c4cn(C5CCN(CC6CN(c7ccc8c(c7)C(=O)N(C7CCC(=O)NC7=O)C8=O)C6)CC5)nc4C(F)F)nn3)ccc2c1 (stereo not drawn) [Example 75],> 80%,0.5 to 1 nM,–,–
"NC(=O)c1cnn2c(-c3cn(-c4cn([C@H]5CC[C@H](CN6CC7(CC(CCNc8cccc9c8C(=O)N(C8CCC(=O)NC8=O)C9=O)C7)C6)CC5)nc4C(F)F)nn3)ccc2c1 (stereo partly drawn) [Example 76, 7-(1-(3-(difluoromethyl)-1-((1r,4r)-4-((6-(2-((2-(2,6-dioxopiperidin-3-yl)-1,3-dioxoisoindolin-4-yl)amino)ethyl)-2-azaspiro[3.3]hept-2-yl)methyl)cyclohexyl)-1H-pyrazol-4-yl)-1H-1,2,3-triazol-4-yl)pyrrolo[1,2-b]pyridazine-3-carboxamide]",< 60%,< 0.5 nM,–,–
NC(=O)c1cnn2c(-c3cn(-c4cn(C5CCN(CC6CCC7(CC6)CCN(C(=O)c6ccc(Cl)c(N8CCC(=O)NC8=O)c6)CC7)CC5)nc4C(F)F)nn3)ccc2c1 [Example 77],70 to 80%,0.5 to 1 nM,–,–
O=C1CCC(N2C(=O)c3ccc(N4CC(CN5CCC(n6cc(-n7cc(-c8cnn9ccc(N%10CCOCC%10)nc89)nn7)c(C(F)F)n6)CC5)C4)cc3C2=O)C(=O)N1 (stereo not drawn) [Example 78],70 to 80%,1 to 5 nM,–,–
Cn1c(=O)n(C2CCC(=O)NC2=O)c2cccc(C#CC3CCN(C[C@H]4CC[C@H](n5cc(-n6cc(-c7ccc8cc(C(N)=O)cnn78)nn6)c(C(F)F)n5)CC4)CC3)c21 (stereo partly drawn) [Example 79],70 to 80%,0.5 to 1 nM,–,–
"Cn1c(=O)n(C2CCC(=O)NC2=O)c2cccc(N3CCC4(CCN(C[C@H]5CC[C@H](n6cc(-n7cc(-c8ccc9cc(C(N)=O)cnn89)nn7)c(C(F)F)n6)CC5)C4)C3)c21 (stereo partly drawn) [Example 80, 7-(1-(3-(difluoromethyl)-1-((1r,4r)-4-(7-(1-(2,6-dioxy-3-yl)-3-methyl-2-oxo-2,3-dihydro-1H-benzo[d]imidazol-4-yl)-2,7-diazaspiro[4.4]non-2-yl)methyl)-1H-pyrazol-4-yl)-1H-1,2,3-triazol-4-yl)pyrrolo[1,2-b]pyridazine-3-carboxamide]",> 80%,< 0.5 nM,–,–
